Measurements published in publication PMC7998669, “7-(2-Anilinopyrimidin-4-yl)-1-benzazepin-2-ones Designed by a “Cut and Glue” Strategy Are Dual Aurora A/VEGF-R Kinase Inhibitors” (Molecules, 2021).

Tests used:
Assay in all cases: NCI cancer cell line screen (sulforhodamin B)
Assay type in all cases: cell-based
K-562 = details: Homo sapiens, K562; K-562, Leukemia; 48 h; read-out: log10 GI50 (converted)
Protocol: (§1) The new dual Aurora A/VEGF-R inhibitors 2e and 2n were selected by the National Cancer Institute for screening in its broad cancer cell line panel. The NCI in vitro assay is performed by incubation of cells with test compounds for 48 h and subsequent cell fixation with trichloroacetic acid. The pink dye sulforhodamin B is added, which binds to the proteins of the fixed cells. After washing and solubilizing the bound stain, the optical density is measured spectrophotometrically to determine the relative proliferation of treated and untreated cells.
(§2) Simultaneous inhibition of the Aurora A kinase and the VEGF-R2/3 receptor kinases may represent an interesting dual activity for the treatment of cancer. The National Cancer Institute selected the compounds 2e and 2n as representatives with particularly high inhibitory activity on the above kinases for testing in the IVCLS (in vitro cell line screening). In this screening, compounds are tested for antiproliferative activity on about 60 in vitro cultivated tumor cell lines. Based on this very broad screening on cell lines from nine tumor entities the general antiproliferative potency of compounds is determined. In addition, the bioinformatic tool COMPARE allowed one to draw conclusions on the molecular target of the compounds from the activity patterns on the different cell lines. Similar molecular mechanisms of action of two compounds are assumed if a Pearson correlation coefficient (PCC) of > 0.6 is calculated by COMPARE [52, 53]. […] The selectivity profile of the two compounds is not very pronounced given the overall very similar proliferation inhibition values across all cell lines. A COMPARE analysis determined a PCC = 0.61 for the patterns of test compounds 2e and 2n, which is consistent with an analogous mechanism of action. However, whether this mechanism is actually based on the inhibition of the inhibited Aurora kinases and VEGF receptor kinases cannot be deduced from these profiles.

HCT-116 = details: Homo sapiens; HCT-116, Colon; 48 h; read-out: log10 GI50 (converted)
Protocol: as §1, §2

M14 = details: Homo sapiens; M14, Melanoma; 48 h; read-out: log10 GI50 (converted)
Protocol: as §1, §2

SNB-75 = details: Homo sapiens; SNB-75, CNS; 48 h; read-out: log10 GI50 (converted)
Protocol: as §1, §2

RXF 393 = details: Homo sapiens; RXF 393, Renal; 48 h; read-out: log10 GI50 (converted)
Protocol: as §1, §2

A498 = details: Homo sapiens; A498, Renal; 48 h; read-out: log10 GI50 (converted)
Protocol: as §1, §2

SK-MEL-5 = details: Homo sapiens; SK-MEL-5, Melanoma; 48 h; read-out: log10 GI50 (converted)
Protocol: as §1, §2

DU-145 = details: Homo sapiens; DU-145, Prostate; 48 h; read-out: log10 GI50 (converted)
Protocol: as §1, §2

OVCAR-3 = details: Homo sapiens; OVCAR-3, Ovarian; 48 h; read-out: log10 GI50 (converted)
Protocol: as §1, §2

786-0 = details: Homo sapiens; 786-0, Renal; 48 h; read-out: log10 GI50 (converted)
Protocol: as §1, §2

MDA-MB-435 = details: Homo sapiens; MDA-MB-435, Melanoma; 48 h; read-out: log10 GI50 (converted)
Protocol: as §1, §2

HOP-92 = details: Homo sapiens; HOP-92, NSCL; 48 h; read-out: log10 GI50 (converted)
Protocol: as §1, §2

HT29 = details: Homo sapiens, HT-29; HT29, Colon; 48 h; read-out: log10 GI50 (converted)
Protocol: as §1, §2

PC-3 = details: Homo sapiens; PC-3, Prostate; 48 h; read-out: log10 GI50 (converted)
Protocol: as §1, §2

EKVX = details: Homo sapiens, NSCL, 48 h, read-out: log10 GI50 (converted)
Protocol: as §1, §2

MALME-3M = details: Homo sapiens, Melanoma, 48 h, read-out: log10 GI50 (converted)
Protocol: as §1, §2

SK-OV-3 = details: Homo sapiens; SK-OV-3, Ovarian; 48 h; read-out: log10 GI50 (converted)
Protocol: as §1, §2

SF-539 = details: Homo sapiens; SF-539, CNS; 48 h; read-out: log10 GI50 (converted)
Protocol: as §1, §2

NCI-H460 = details: Homo sapiens; NCI-H460, NSCL; 48 h; read-out: log10 GI50 (converted)
Protocol: as §1, §2

NCI-H226 = details: Homo sapiens; NCI-H226, NSCL; 48 h; read-out: log10 GI50 (converted)
Protocol: as §1, §2

NCI-H522 = details: Homo sapiens; NCI-H522, NSCL; 48 h; read-out: log10 GI50 (converted)
Protocol: as §1, §2

NCI-H322M = details: Homo sapiens, NSCL, 48 h, read-out: log10 GI50 (converted)
Protocol: as §1, §2

IGROV1 = details: Homo sapiens, IGROV-1; IGROV1, Ovarian; 48 h; read-out: log10 GI50 (converted)
Protocol: as §1, §2

ACHN = details: Homo sapiens, Renal, 48 h, read-out: log10 GI50 (converted)
Protocol: as §1, §2

SK-MEL-28 = details: Homo sapiens; SK-MEL-28, Melanoma; 48 h; read-out: log10 GI50 (converted)
Protocol: as §1, §2

KM12 = details: Homo sapiens; KM12, Colon; 48 h; read-out: log10 GI50 (converted)
Protocol: as §1, §2

OVCAR-8 = details: Homo sapiens; OVCAR-8, Ovarian; 48 h; read-out: log10 GI50 (converted)
Protocol: as §1, §2

Structure (SMILES) | GI50 (K-562) [µM] | GI50 (HCT-116) [µM] | GI50 (M14) [µM] | GI50 (SNB-75) [µM] | GI50 (RXF 393) [µM] | GI50 (A498) [µM] | GI50 (SK-MEL-5) [µM] | GI50 (DU-145) [µM] | GI50 (OVCAR-3) [µM] | GI50 (786-0) [µM] | GI50 (MDA-MB-435) [µM] | GI50 (HOP-92) [µM] | GI50 (HT29) [µM] | GI50 (PC-3) [µM] | GI50 (EKVX) [µM] | GI50 (MALME-3M) [µM] | GI50 (SK-OV-3) [µM] | GI50 (SF-539) [µM] | GI50 (NCI-H460) [µM] | GI50 (NCI-H226) [µM] | also measured
O=C1CCCc2cc(-c3ccnc(Nc4ccc(O)cc4)n3)ccc2N1 [Compound 2e, 7-[2-(4-Hydroxyanilino)pyrimidin-4-yl]-1,3,4,5-tetrahydro-2H-1-benzazepin-2-one] | 3.72 | 3.63 | 4.07 | 3.39 | 1.86 | 4.79 | 3.09 | 3.39 | 5.89 | 4.37 | 3.63 | 6.61 | 5.13 | 4.9 | 34.7 | 2.19 | 3.02 | 4.17 | 3.16 | 29.5 | GI50 (NCI-H522): 4.47 µM; GI50 (NCI-H322M): 4.07 µM; GI50 (IGROV1): 2.51 µM; GI50 (ACHN): 2.57 µM; GI50 (SK-MEL-28): 5.75 µM; GI50 (KM12): 2.57 µM; GI50 (OVCAR-8): 4.07 µM
COc1ccc(Nc2nccc(-c3ccc4c(c3)CCCC(=O)N4)n2)cc1O [Compound 2n, 7-[2-(3-Hydroxy-4-methoxyanilino)pyrimidin-4-yl]-1,3,4,5-tetrahydro-2H-1-benzazepin-2-one] | 4.27 | 3.8 | 4.37 | 2.19 | 2.69 | 37.2 | 10 | 5.01 | 10 | 4.57 | 5.25 | 0.214 | 13.2 | 12.6 | 43.7 | > 100 | 5.25 | 4.47 | 4.68 | 9.12 | GI50 (NCI-H522): 10 µM; GI50 (NCI-H322M): 30.9 µM; GI50 (IGROV1): 3.02 µM; GI50 (ACHN): 4.17 µM; GI50 (SK-MEL-28): 9.12 µM; GI50 (KM12): 4.79 µM; GI50 (OVCAR-8): 9.77 µM
